Measured values as given in patent US7999147B2, “Reduction of odors in absorbent articles” (First Quality Products, Inc., priority 2004, dated 2011).
Several values for one entry are separate records, joined by “and”; a condition that tells them apart may be missing. Identical values can stand only once.

How the values were obtained:
ammonia [1] = experiment: Ammonia concentration from urine in absorbent structures sprayed with additive solution (gas dosimeter tubes); parameters: species or system human; conditions: 37° C.
ammonia [2] = experiment: Ammonia concentration from urine in absorbent structures containing additive-treated SAP (gas dosimeter tubes); parameters: species or system human; conditions: 1.5 g SAP treated with FORESTALL (0.135 g per 13.5 g SAP) + 4.5 g fluff pulp, 37° C., donors X, Y
Method: The following is a detailed description of the test method to measure ammonia concentrations. A series of absorbent structures are prepared according to the following. The base absorbent structure is fluff pulp or a combination of fluff and SAP. Then, for example, an aqueous solution is prepared containing a known quantity of a potential treatment for ammonia malodor. An equal quantity of the solution is sprayed onto all but one of the series of absorbent structures. The spraying is applied as uniformly as possible. One absorbent structure is sprayed with an equal volume of water and is the control. All absorbent structures are left out several hours to dry. Each of the absorbent structures is then transferred to Nalgene® Brand 125-ml, narrow-mouth polycarbonate Erlenmeyer flasks. […]
Straughan® Gastec® ammonia gas dosimeter tubes, grade 3D, are broken off and thereby opened at one end. […] Donors collect a suitable quantity of fresh urine specimen in disposable collection cups marked with volume indications. […]
The flasks are then placed into a water bath set at 37° C. […] Based on discrete markings on the detector tube, the time-weighted average concentration of ammonia measured in parts per million-hour are read from the scale and recorded. […] Readings of ammonia concentrations are read up to 72 hours time or less if any of the concentrations exceed the maximum limit of the detection tube's range. […]

[3] = Water solubility of the additive; type: physicochemical
Method: Four absorbent structures are made according to Example 4 except onto three structures, 4.5 ml of an aqueous solution containing 1% M-Quat Dimer 18 is sprayed. To dissolve the additive in water, the temperature needed to be raised to about 45-60° C. M-Quat Dimer 18 is the tradename for 2-hydroxypropylene-bis-1,3-(dimethylstearylammonium chloride). […] This chemical is manufactured by BASF Corporation.

[4] = 4.5 ml of 1% M-Quat Dimer 18 sprayed on fluff pulp + SAP, urine, donors X, Y

With “1-propanaminium, 3-amino-N-ethyl-N,N-dimethyl-N-soya acyl derivative, ethyl sulfate” the “Ammonia Concentration ppm-hour 56 hour reading” value (ammonia [1]; 4.5 ml of 1% 1-propanaminium soya acyl derivative ethyl sulfate sprayed on fluff pulp + SAP, urine, donor Y, 56 hour) was 25 ppm-hour, the “Ammonia Concentration ppm-hour 72 hour reading” value (ammonia [1]; 4.5 ml of 1% 1-propanaminium soya acyl derivative ethyl sulfate sprayed on fluff pulp + SAP, urine, donor Z) was 0 ppm-hour and the “Ammonia Concentration ppm-hour 8 hour reading” value (ammonia [1]; 4.5 ml of 1% 1-propanaminium soya acyl derivative ethyl sulfate sprayed on fluff pulp + SAP, urine, donors Y, Z) was 0 ppm-hour. The “Ammonia Concentration ppm-hour 24 hour reading” value (ammonia [1]; 4.5 ml of 1% 1-propanaminium soya acyl derivative ethyl sulfate sprayed on fluff pulp + SAP, urine, donors Y, Z, 24 hour) was 0 ppm-hour.

With “4-ethyl-4-soya morpholinium ethyl sulfate [FORESTALL]” the “Ammonia Concentration ppm-hour 32 hour reading” value (ammonia [2]) was 25 ppm-hour and 30 ppm-hour and the “Ammonia Concentration ppm-hour 8 hour reading” value (ammonia [1]; 4.5 ml of 1% FORESTALL sprayed on 4.5 g fluff pulp + 1.5 g SAP, fresh urine, donors X, Y, Z) was 0 ppm-hour.

For CCCCCCCCCCCCCCCCCC[N+](C)(C)CC(O)C[N+](C)(C)CCCCCCCCCCCCCCCCCC.[Cl-].[Cl-] [M-Quat Dimer 18, 2-hydroxypropylene-bis-1,3-(dimethylstearylammonium chloride)], the “Ammonia Concentration ppm-hour 8 hour reading” value (ammonia [1]; [4]) was 0 ppm-hour, the “Ammonia Concentration ppm-hour 32 hour reading” value (ammonia [1]; 4.5 ml of 1% M-Quat Dimer 18 sprayed on fluff pulp + SAP, urine, donors X, Y, 32 hour) was 12 ppm-hour and 20 ppm-hour and 23 ppm-hour and the “Ammonia Concentration ppm-hour 48 hour reading” value (ammonia [1]; 4.5 ml of 1% M-Quat Dimer 18 sprayed on fluff pulp + SAP, urine, donors X, Y, 48 hour) was 25 ppm-hour and 30 ppm-hour and 50 ppm-hour. The “Ammonia Concentration ppm-hour 72 hour reading” value (ammonia [1]; [4]) was 250 ppm-hour and 470 ppm-hour and 280 ppm-hour and 400 ppm-hour and 425 ppm-hour, the “Temperature needed to dissolve the additive in water” value ([3]; 1% aqueous solution) was 45-60 °C and the “Water solubility at 37° C.” value ([3]; 37° C.) was “not water soluble at 37 °C”.

For “ethylbis(hydroxyethyl)tallowalkyl ammonium ethyl sulfate”, the “Ammonia Concentration ppm-hour 8 hour reading” value (ammonia [1]; 4.5 ml of 1% ethylbis(hydroxyethyl)tallowalkyl ammonium ethyl sulfate sprayed on fluff pulp + SAP, urine, donors Z, X) was 0 ppm-hour.

In the case of “hydrogenated tallowalkyl(2-ethylhexyl)dimethylammonium methyl sulfate [ARQUAD HTL8-MS]”, the “Ammonia Concentration ppm-hour 8 hour reading” value (ammonia [1]; 4.5 ml of 1% ARQUAD HTL8-MS sprayed on fluff pulp + SAP, urine, donors X, Y) is reported as 0 ppm-hour.
